Test results published in article PMC9551036, “A selective and orally bioavailable VHL-recruiting PROTAC achieves SMARCA2 degradation in vivo” (Nature Communications, 2022).
Values joined by “and” are separate entries in the source; they are usually repeats but may differ in a detail not shown here. Equal entries are not always repeated. Where two headings read alike, the source gives them in different places.

Columns and labels:
[1] = tested on: VCB: PROTAC: SMARCA2^BD ternary complex; assay: TR-FRET ternary complex affinity and cooperativity, SMARCA2; type: binding, human; conditions: ratio TR-FRET EC50 / TR-FRET EC50 +VCB measured in the same run, SMARCA2BD
[2] = tested on: VCB: PROTAC: SMARCA4^BD ternary complex; assay: TR-FRET ternary complex affinity and cooperativity, SMARCA4; type: binding, human; conditions: ratio TR-FRET EC50 / TR-FRET EC50 +VCB measured in the same run, SMARCA4BD
Solubility testing = type: physicochemical; conditions: for solubility at 24 h: buffer, kinetic from dmso stock
Description: Dilution into a 1:1 mixture of acetonitrile and water was used as reference. After 24 h, the incubations were filtrated, and the filtrate was analyzed by LC-UV.

PBRM1BD5 = target: T1, PBRM1BD5 (Homo sapiens, UniProt Q86U86); assay: TR-FRET ternary complex affinity and cooperativity, PBRM1; type: binding; conditions: TR-FRET competition for PBRM1BD5, without VCB; mean ± SD; read-out: TR-FRET PBRM1BD EC50
T1 construct: GST (TEV site) (N); His6 (TEV site) (N, cleaved yes); made in house; host or cells: PBRM1^BD5: Escherichia coli BL21(DE3)
T1 sequence (Q86U86 645-766): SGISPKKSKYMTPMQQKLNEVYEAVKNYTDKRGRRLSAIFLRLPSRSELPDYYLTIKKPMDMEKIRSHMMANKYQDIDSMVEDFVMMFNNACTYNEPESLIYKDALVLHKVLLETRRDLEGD

SMARCA2 = SMARCA2 (Homo sapiens, UniProt P51531); assay: Imaging-based SMARCA2 protein assay in RKO cells; type: cell-based; design: endogenous in cells; host or cells: RKO, NCI-H1568, A549, HCT116, LU99, HCC-364, HCT-15, HCC4006, SK-N-AS; conditions: individual replicates
Chain of SMARCA2 (P51531 whole entry): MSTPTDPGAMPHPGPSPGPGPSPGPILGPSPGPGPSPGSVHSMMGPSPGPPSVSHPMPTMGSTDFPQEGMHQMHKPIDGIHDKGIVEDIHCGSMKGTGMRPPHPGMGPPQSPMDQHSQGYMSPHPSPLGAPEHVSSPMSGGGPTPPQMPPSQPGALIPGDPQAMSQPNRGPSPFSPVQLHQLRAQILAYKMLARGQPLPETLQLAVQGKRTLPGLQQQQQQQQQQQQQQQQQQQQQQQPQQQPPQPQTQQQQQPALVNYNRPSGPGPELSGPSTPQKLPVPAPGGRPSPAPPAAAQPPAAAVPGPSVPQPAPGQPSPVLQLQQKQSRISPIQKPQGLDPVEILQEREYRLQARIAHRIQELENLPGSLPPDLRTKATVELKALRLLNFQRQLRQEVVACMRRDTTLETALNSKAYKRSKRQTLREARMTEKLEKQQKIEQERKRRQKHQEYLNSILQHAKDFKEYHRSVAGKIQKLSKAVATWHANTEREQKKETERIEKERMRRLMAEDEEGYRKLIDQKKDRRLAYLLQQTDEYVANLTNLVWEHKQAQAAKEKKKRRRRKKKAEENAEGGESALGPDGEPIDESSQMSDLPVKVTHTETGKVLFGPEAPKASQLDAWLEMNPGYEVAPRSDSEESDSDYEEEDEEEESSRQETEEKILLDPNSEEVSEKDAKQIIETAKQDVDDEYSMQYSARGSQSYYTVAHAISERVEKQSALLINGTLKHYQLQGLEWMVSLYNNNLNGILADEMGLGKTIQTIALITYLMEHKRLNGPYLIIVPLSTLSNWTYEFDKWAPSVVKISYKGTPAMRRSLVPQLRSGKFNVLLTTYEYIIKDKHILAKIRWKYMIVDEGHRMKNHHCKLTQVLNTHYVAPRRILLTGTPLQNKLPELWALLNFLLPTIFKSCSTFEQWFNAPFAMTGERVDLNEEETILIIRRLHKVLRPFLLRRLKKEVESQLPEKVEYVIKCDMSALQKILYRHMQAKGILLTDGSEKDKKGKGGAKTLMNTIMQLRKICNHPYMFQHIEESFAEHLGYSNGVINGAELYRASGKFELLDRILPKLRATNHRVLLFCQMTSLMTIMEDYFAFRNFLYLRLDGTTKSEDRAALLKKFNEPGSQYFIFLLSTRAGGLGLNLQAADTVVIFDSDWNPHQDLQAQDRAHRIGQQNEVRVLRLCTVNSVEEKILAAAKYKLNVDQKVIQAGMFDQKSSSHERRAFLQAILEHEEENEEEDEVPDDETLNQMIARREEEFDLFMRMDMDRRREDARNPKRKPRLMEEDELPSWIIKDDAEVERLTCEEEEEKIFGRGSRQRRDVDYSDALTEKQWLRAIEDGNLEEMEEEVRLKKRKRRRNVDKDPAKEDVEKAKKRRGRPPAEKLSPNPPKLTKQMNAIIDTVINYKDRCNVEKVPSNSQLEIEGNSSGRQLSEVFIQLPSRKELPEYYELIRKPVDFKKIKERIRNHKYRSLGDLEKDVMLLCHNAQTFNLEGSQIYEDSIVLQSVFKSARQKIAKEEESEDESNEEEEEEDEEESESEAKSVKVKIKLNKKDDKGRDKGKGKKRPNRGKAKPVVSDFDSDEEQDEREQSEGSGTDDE
Description: 1250 cells per well in 60 µl medium were plated in flat bottom, poly-lysin coated 384-well plates (CellCarrier Ultra, Perkin Elmer). The next day, test compounds (10 µl of serial dilutions) and DMSO controls were diluted in DMEM medium such that the final DMSO content was <1% or were added using an ultrasound dispensing system. 4 wells were reserved for a background measurement. […] After aspirating the fixing solution, the cells were washed once with 25 µl PBS. 25 µl of blocking buffer (10% goat serum in PBS) was added and cells were incubated for 30 min, then washed once with PBS. […] Cells were again washed once with PBS. […] The cell layer was then washed once with 25 µl PBS, the wells were filled with 25 µl PBS and the plates were sealed with an adhesive sheet. They were then imaged on the Opera Phoenix (mean intensity in the nucleus). […] EC50 values were computed using a 4-parametric logistic model.

[3] = target: VCB: PROTAC: SMARCA4^BD ternary complex (Homo sapiens, UniProt P40337+P51532); assay: TR-FRET ternary complex affinity and cooperativity, SMARCA4; type: binding; design: P51532, residues 1448–1569 with additional N-terminal SM residues; GST (TEV site) (N); His6 (TEV site) (N, cleaved yes); made in house; host or cells: SMARCA4^BD: Escherichia coli BL21(DE3)
Chain of VCB: PROTAC: SMARCA4^BD ternary complex (Homo sapiens, UniProt P40337+P51532) (P51532 1448-1569): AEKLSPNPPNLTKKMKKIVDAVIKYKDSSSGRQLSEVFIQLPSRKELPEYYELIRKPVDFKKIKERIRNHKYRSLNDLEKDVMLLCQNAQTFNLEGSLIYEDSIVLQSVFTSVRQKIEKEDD
Chain of VCB: PROTAC: SMARCA4^BD ternary complex (Homo sapiens, UniProt P40337+P51532) (P40337 54-213): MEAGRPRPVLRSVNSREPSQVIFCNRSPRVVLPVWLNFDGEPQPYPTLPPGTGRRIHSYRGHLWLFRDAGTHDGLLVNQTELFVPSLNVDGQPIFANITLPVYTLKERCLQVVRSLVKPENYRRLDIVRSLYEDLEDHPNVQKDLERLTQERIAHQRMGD
Chain of VCB: PROTAC: SMARCA4^BD ternary complex (Homo sapiens, UniProt P40337+P51532) (Q15369 17-112 partner): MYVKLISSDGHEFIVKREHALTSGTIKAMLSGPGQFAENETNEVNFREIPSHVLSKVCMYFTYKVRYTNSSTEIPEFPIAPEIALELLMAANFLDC
Chain of VCB: PROTAC: SMARCA4^BD ternary complex (Homo sapiens, UniProt P40337+P51532) (Q15370 1-104 partner): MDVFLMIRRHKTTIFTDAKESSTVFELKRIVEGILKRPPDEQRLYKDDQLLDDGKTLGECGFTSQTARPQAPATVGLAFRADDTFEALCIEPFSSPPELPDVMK

SMARCA4 = SMARCA4 (Homo sapiens, UniProt P51532); assay: Imaging-based SMARCA4 protein assay in RKO cells; type: cell-based; design: endogenous in cells; host or cells: RKO, HCT116, LU99, HCC-364, HCT-15, HCC4006, SK-N-AS; conditions: individual replicates
Chain of SMARCA4 (P51532 whole entry): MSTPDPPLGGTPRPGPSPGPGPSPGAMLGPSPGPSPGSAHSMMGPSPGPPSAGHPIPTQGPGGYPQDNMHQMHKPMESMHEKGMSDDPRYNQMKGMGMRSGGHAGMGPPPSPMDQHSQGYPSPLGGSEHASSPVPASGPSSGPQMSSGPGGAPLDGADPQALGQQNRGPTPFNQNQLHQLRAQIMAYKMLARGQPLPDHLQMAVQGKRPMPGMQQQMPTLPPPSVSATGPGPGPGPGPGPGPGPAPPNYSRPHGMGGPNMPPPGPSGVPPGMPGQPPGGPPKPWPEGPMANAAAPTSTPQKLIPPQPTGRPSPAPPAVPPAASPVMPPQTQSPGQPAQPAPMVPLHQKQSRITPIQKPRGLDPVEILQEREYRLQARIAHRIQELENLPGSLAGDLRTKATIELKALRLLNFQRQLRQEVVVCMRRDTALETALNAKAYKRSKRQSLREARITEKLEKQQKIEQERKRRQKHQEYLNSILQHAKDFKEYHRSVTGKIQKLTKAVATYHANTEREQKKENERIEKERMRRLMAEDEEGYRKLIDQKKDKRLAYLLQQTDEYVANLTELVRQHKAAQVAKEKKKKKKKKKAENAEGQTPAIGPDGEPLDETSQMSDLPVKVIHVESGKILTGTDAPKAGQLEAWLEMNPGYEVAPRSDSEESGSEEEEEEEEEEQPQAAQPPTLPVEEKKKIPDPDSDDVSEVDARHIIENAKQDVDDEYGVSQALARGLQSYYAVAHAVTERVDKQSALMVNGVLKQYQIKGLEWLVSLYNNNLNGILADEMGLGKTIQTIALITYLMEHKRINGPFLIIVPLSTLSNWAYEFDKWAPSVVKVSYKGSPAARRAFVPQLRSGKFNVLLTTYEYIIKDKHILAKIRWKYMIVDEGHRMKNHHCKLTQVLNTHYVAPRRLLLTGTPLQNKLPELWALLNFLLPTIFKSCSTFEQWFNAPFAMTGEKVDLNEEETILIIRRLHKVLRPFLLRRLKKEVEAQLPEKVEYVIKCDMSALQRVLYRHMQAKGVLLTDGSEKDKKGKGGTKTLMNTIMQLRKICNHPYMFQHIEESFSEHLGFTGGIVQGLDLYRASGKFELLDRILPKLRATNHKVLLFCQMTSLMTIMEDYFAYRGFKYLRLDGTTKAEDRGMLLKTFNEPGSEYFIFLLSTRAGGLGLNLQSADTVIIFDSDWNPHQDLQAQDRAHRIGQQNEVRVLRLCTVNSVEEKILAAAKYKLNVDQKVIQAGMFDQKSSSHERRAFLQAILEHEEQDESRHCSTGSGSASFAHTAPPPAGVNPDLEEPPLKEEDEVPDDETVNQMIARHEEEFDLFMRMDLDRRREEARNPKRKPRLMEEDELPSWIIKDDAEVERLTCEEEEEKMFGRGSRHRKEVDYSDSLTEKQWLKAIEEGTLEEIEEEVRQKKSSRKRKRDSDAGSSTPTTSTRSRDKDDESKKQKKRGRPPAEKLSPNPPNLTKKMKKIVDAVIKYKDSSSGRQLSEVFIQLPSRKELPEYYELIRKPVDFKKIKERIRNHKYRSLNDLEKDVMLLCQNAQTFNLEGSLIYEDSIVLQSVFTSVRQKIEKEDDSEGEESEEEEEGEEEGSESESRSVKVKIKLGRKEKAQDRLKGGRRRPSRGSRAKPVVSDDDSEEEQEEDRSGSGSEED
Description: 1250 cells per well in 60 µl medium were plated in flat bottom, poly-lysin coated 384-well plates (CellCarrier Ultra, Perkin Elmer). The next day, test compounds (10 µl of serial dilutions) and DMSO controls were diluted in DMEM medium such that the final DMSO content was <1% or were added using an ultrasound dispensing system. 4 wells were reserved for a background measurement. […] After aspirating the fixing solution, the cells were washed once with 25 µl PBS. 25 µl of blocking buffer (10% goat serum in PBS) was added and cells were incubated for 30 min, then washed once with PBS. Cells were stained with 20 µl of SMARCA2/4 primary antibody solution (Sigma #HPA029981 RRID:AB_10602406 1:1000 or Cell Signalling #52251 clone E9O6 RRID:AB_2799410 1:1000 in PBS with 10% FCS) for 2–4 h at room temperature. Cells were again washed once with PBS. […] The cell layer was then washed once with 25 µl PBS, the wells were filled with 25 µl PBS and the plates were sealed with an adhesive sheet. They were then imaged on the Opera Phoenix (mean intensity in the nucleus). Results were computed as percent of controls ((value of test compound − background)/(value of the negative control DMSO—background) multiplied by 100). EC50 values were computed using a 4-parametric logistic model.

[4] = 18h, read-out: RKO (18h) SMARCA2 DC50
[5] = PROTAC + VCB, individual replicates, read-out: Ternary SMARCA4 BD EC50 (PROTAC + VCB)
[6] = TR-FRET competition for SMARCA4BD, + VCB, mean ± SD, read-out: TR-FRET Ternary SMARCA4BD EC50 (PROTAC + VCB)
[7] = 4h, read-out: RKO (4h) SMARCA4 DC50
[8] = 18h, read-out: RKO (18h) SMARCA4 DC50
[9] = 4h, read-out: RKO (4h) SMARCA2 DC50
[10] = pH 4.5, aqueous buffer, pH 4.5, read-out: Solubility pH 4.5
[11] = pH 6.8, aqueous buffer, pH 6.8, read-out: Solubility pH 6.8

Cc1ncsc1-c1ccc(CNC(=O)[C@@H]2C[C@@H](O)CN2C(=O)[C@@H](NC(=O)C2(F)CC2)C(C)(C)C)c(OCCCCN2CCC(c3ccc4c(c3)n(C3CCCC3)c3nc(=O)c5c(Br)cccc5n43)CC2)c1 [compound 23]
cooperativity α (SMARCA2BD) [1]: 0.7 ± 0.3 | cooperativity α (SMARCA4BD) [2]: 0.9 ± 0.1 | Solubility pH 4.5 (Solubility testing; pH 4.5): <1.000 ug/mL | Solubility pH 6.8 (Solubility testing; pH 6.8): <1.000 ug/mL | EC50 (PBRM1BD5): 39 ± 5 nM | DC50 (SMARCA2; [4]): 30 nM and 50 nM and 40 nM | EC50 [3, 5]: 165 nM and 215 nM and 180 nM and 280 nM | EC50 [3, 6]: 206 ± 51 nM

CN1CCN(c2nc(=O)c3c(Br)cccc3o2)CC1 [compound 15]
Solubility pH 4.5 (Solubility testing; pH 4.5): >83.000 ug/mL | Solubility pH 6.8 (Solubility testing; pH 6.8): >82.000 ug/mL | EC50 (PBRM1BD5): > 10000 nM | DC50 (SMARCA4; [7]): > 25000 nM | DC50 (SMARCA4; [8]): > 25000 nM | DC50 (SMARCA2; [9]): > 25000 nM | DC50 (SMARCA2; [4]): > 25000 nM | EC50 [3, 5]: > 10000 nM

CN1CCC(c2ccc3c(c2)n(C2CCCC2)c2nc(=O)c4c(Br)cccc4n32)CC1 [compound 3]
solubility at 24 h (Solubility testing; [10]): > 110 µg/mL | solubility at 24 h (Solubility testing; [11]): > 100 µg/mL | Solubility pH 4.5 (Solubility testing; pH 4.5): > 100.000 ug/mL | Solubility pH 6.8 (Solubility testing; pH 6.8): > 110.000 ug/mL and 94.000 ug/mL | EC50 (PBRM1BD5): 31 ± 12 nM | DC50 (SMARCA4; [7]): > 25000 nM | DC50 (SMARCA4; [8]): 6980 nM and 15500 nM and 13600 nM | DC50 (SMARCA2; [9]): > 25000 nM | DC50 (SMARCA2; [4]): 20000 nM and 24900 nM and 22400 nM | EC50 [3, 5]: 101 nM and 109 nM (2×) and 108 nM and 118 nM (2×) and 103 nM and 112 nM and 115 nM (2×) and 104 nM and 76.8 nM and 91.4 nM and 77.5 nM and 72.4 nM and 95.9 nM and 122 nM and 90.9 nM and 83.6 nM and 106 nM and 89.9 nM and 93.4 nM (2×) and 86.9 nM and 97.7 nM and 84.8 nM and 184 nM and 180 nM and 117 nM and 86 nM and 87.9 nM and 87.4 nM and 189 nM and 202 nM and 148 nM and 124 nM and 121 nM and 136 nM and 97.4 nM and 130 nM and 99.2 nM and 105 nM and 102 nM | EC50 [3, 6]: 108 ± 30 nM

CN1CCN(c2nc(=O)c3c(I)cccc3o2)CC1 [compound 16]
Solubility pH 4.5 (Solubility testing; pH 4.5): >97.000 ug/mL | Solubility pH 6.8 (Solubility testing; pH 6.8): >97.000 ug/mL | EC50 (PBRM1BD5): > 10000 nM | DC50 (SMARCA4; [7]): > 25000 nM | DC50 (SMARCA4; [8]): > 25000 nM | DC50 (SMARCA2; [9]): > 25000 nM | DC50 (SMARCA2; [4]): > 25000 nM | EC50 [3, 5]: > 10000 nM

Nc1cccc2c1c(=O)nc1n(C3CCCC3)c3ccccc3n21 [compound 2]
solubility at 24 h (Solubility testing; [10]): < 1 µg/mL | solubility at 24 h (Solubility testing; [11]): < 1 µg/mL | EC50 (PBRM1BD5): 1000 nM | DC50 (SMARCA4; [7]): 2.7 µM and > 25 µM (2×) | DC50 (SMARCA4; [8]): > 25000 nM | DC50 (SMARCA2; [9]): > 25000 nM | DC50 (SMARCA2; [4]): > 25000 nM | EC50 [3, 5]: 2270 nM and 2610 nM and 2110 nM | EC50 [3, 6]: 2320 nM

CN1CCN(c2nc(=O)c3c(F)cccc3o2)CC1 [compound 17]
EC50 (PBRM1BD5): > 10000 nM | DC50 (SMARCA4; [7]): > 25000 nM | DC50 (SMARCA4; [8]): > 25000 nM | DC50 (SMARCA2; [9]): > 25000 nM | DC50 (SMARCA2; [4]): > 25000 nM | EC50 [3, 5]: > 10000 nM

CN1CCN(c2nc(=O)c3c(Cl)cccc3o2)CC1 [compound 13]
Solubility pH 4.5 (Solubility testing; pH 4.5): >70.000 ug/mL | Solubility pH 6.8 (Solubility testing; pH 6.8): >71.000 ug/mL | EC50 (PBRM1BD5): > 10000 nM | DC50 (SMARCA4; [7]): > 25000 nM | DC50 (SMARCA4; [8]): > 25000 nM | DC50 (SMARCA2; [9]): > 25000 nM | DC50 (SMARCA2; [4]): > 25000 nM | EC50 [3, 5]: > 10000 nM

O=c1nc2n(C3CCCC3)c3ccccc3n2c2cccc(Br)c12 [compound 1]
solubility at 24 h (Solubility testing; [10]): < 1 µg/mL | solubility at 24 h (Solubility testing; [11]): < 1 µg/mL | EC50 (PBRM1BD5): 134 ± 28 nM | DC50 (SMARCA4; [7]): > 25000 nM | DC50 (SMARCA4; [8]): > 25000 nM | DC50 (SMARCA2; [9]): > 25000 nM | DC50 (SMARCA2; [4]): > 25000 nM | EC50 [3, 5]: 824 nM and 894 nM and 817 nM | EC50 [3, 6]: 844 ± 42 nM

CN1CCN(c2nc(=O)c3ccccc3o2)CC1 [compound 14]
EC50 (PBRM1BD5): > 10000 nM | DC50 (SMARCA4; [7]): > 25000 nM | DC50 (SMARCA4; [8]): > 25000 nM | DC50 (SMARCA2; [9]): > 25000 nM | DC50 (SMARCA2; [4]): > 25000 nM | EC50 [3, 5]: > 10000 nM

Cc1ncsc1-c1ccc(CNC(=O)[C@@H]2C[C@@H](O)CN2C(=O)[C@@H](NC(=O)C2(F)CC2)C(C)(C)C)c(OCCOCCOCCOCCN2CCC(c3ccc4c(c3)n(C3CCCC3)c3nc(=O)c5c(Br)cccc5n43)CC2)c1 [compound 22]
cooperativity α (SMARCA2BD) [1]: 2.8 ±0.8 | cooperativity α (SMARCA4BD) [2]: 9.1 ± 0.7 | EC50 (PBRM1BD5): 103 ± 13 nM | DC50 (SMARCA4; [7]): 32.8 nM and 118 nM and 40 nM | DC50 (SMARCA4; [8]): 39.9 nM and 168 nM and 69.1 nM | DC50 (SMARCA2; [9]): 85.8 nM and 400 nM and 157 nM | DC50 (SMARCA2; [4]): 97.4 nM and 276 nM and 121 nM | EC50 [3, 5]: 73.1 nM and 97.3 nM and 87.2 nM and 102 nM | EC50 [3, 6]: 89 ± 13 nM
